Experimental data taken from the OPERA property sets (Mansouri et al. 2018).
Converted amounts (≈) assume the structure as drawn.

Details: not given

Compound | solubility
O=C[C@@H]1C[C@@H]2[C@@H]3[C@H]1[C@@]1(Cl)C(Cl)(Cl)[C@]3(Cl)[C@@]3(Cl)[C@@H]2[C@]31Cl | 6.3e-05 mM (≈ 0.024 µg/mL)
C=C1C[C@]23C[C@@]1(O)CC[C@H]2[C@@]12C=C[C@H](O)[C@@](C)(C(=O)O1)[C@H]2[C@@H]3C(=O)O | 14.4 mM (≈ 5000 µg/mL)
O=C(OCCOc1ccc(Cl)cc1Cl)c1ccccc1 | 0.154 mM (≈ 48 µg/mL)
Cc1[nH]c(=O)n(C(C)C)c(=O)c1Br | 8.7 mM (≈ 2150 µg/mL)

Same assay, conditions: 20 °C

Compound | solubility
CCOC(=O)Nc1cccc(OC(=O)Nc2ccccc2)c1 | 0.0233 mM (≈ 7 µg/mL)
O=C1CCc2cccc3c2N1CC3 | 23.1 mM (≈ 4000 µg/mL)
CNC(=S)[S-].[Na+] | 5590 mM
Cc1cc(N(C)C)nc(Cl)n1 | 54.8 mM (≈ 9400 µg/mL)
C=CCN(CC=C)C(=O)C(Cl)Cl | 24 mM (≈ 5000 µg/mL)
N#C/C(=N\OCC1OCCO1)c1ccccc1 | 0.0861 mM (≈ 20 µg/mL)
CN(C)C(=O)SCCCCOc1ccccc1 | 0.118 mM (≈ 30 µg/mL)
[Br-].[Br-].c1cc[n+]2c(c1)-c1cccc[n+]1CC2 | 2060 mM
CC(C)OP(=O)(OC(C)C)SCc1ccccc1 | 1.39 mM (≈ 400 µg/mL)
COP(=S)(OC)Oc1ccc(Sc2ccc(OP(=S)(OC)OC)cc2)cc1 | 0.000579 mM (≈ 0.27 µg/mL)
C1CNCCN1.Cl.Cl | 2580 mM
O=[N+]([O-])c1ccc(O/N=C/c2cc(Br)c(O)c(Br)c2)c([N+](=O)[O-])c1 | 0.000217 mM (≈ 0.1 µg/mL)
C#CC(C)N(C(=O)CCl)c1ccccc1 (centres undefined) | 2.26 mM (≈ 500 µg/mL)
CCC1COC(Cn2cncn2)(c2ccc(Cl)cc2Cl)O1 (centres undefined) | 0.244 mM (≈ 80 µg/mL)
CNC(=O)N(C)c1nnc(C(F)(F)F)s1 | 8.74 mM (≈ 2100 µg/mL)
CN(C(=O)COc1nc2ccccc2s1)c1ccccc1 | 0.0134 mM (≈ 4 µg/mL)
O=CNC(Nc1ccc(Cl)c(Cl)c1)C(Cl)(Cl)Cl (centres undefined) | 0.476 mM (≈ 160 µg/mL)
CN(C)C(O)=Nc1ccc(-n2nc(C(C)(C)C)oc2=O)c(Cl)c1 | 0.0472 mM (≈ 16 µg/mL)
COP(=S)(OC)SCC(=O)N(c1ccc(Cl)cc1)C(C)C | 0.037 mM (≈ 13.6 µg/mL)
CCCOC/C(=N\c1ccc(Cl)cc1C(F)(F)F)n1ccnc1 | 36.1 mM (≈ 12500 µg/mL)
O=C(O)Cc1c[nH]c2ccccc12 | 8.56 mM (≈ 1500 µg/mL)
CCSCCSP(=O)(OC)OC | 14.3 mM (≈ 3300 µg/mL)
CCOC(=O)NCCOc1ccc(Oc2ccccc2)cc1 | 0.0199 mM (≈ 6 µg/mL)
CNC(=O)Oc1ccccc1C1OCCO1 | 26.9 mM (≈ 6000 µg/mL)
O=S1(=O)OCC2C(CO1)C1(Cl)C(Cl)=C(Cl)C2(Cl)C1(Cl)Cl (centres undefined) | 0.00114 mM (≈ 0.48 µg/mL)
CC(Cl)(Cl)[N+](=O)[O-] | 17.4 mM (≈ 2500 µg/mL)
Cc1ccc(NC(=O)N(C)C)cc1Cl | 0.329 mM (≈ 70 µg/mL)

Same assay, conditions: 22 °C

Compound | solubility
CCSC(=O)N(CC)C1CCCCC1 | 0.395 mM (≈ 85 µg/mL)

Same assay, conditions: 23 °C

Compound | solubility
COC(=O)C(C)N(C(=O)c1ccccc1)c1ccc(F)c(Cl)c1 (centres undefined) | 0.0857 mM (≈ 28.8 µg/mL)

Same assay, conditions: 25 °C

Compound | solubility
O=C(O)COc1nc(Cl)c(Cl)cc1Cl | 1.72 mM (≈ 440 µg/mL)
O=C(O)c1cc(Cl)c(Cl)cc1Cl | 3.59 mM (≈ 810 µg/mL)
CN(C)C(=O)Nc1cc(C(C)(C)C)on1 | 3.74 mM (≈ 790 µg/mL)
C=C(CC(Cl)(Cl)Cl)c1ccccc1 | 0.0522 mM (≈ 12.3 µg/mL)
COC(=O)C1(O)c2ccccc2-c2ccc(Cl)cc21 (centres undefined) | 0.0655 mM (≈ 18 µg/mL)
CNP(=O)(OC)Oc1ccc(C(C)(C)C)cc1Cl (centres undefined) | 0.686 mM (≈ 200 µg/mL)
CCCCc1c(C)nc(NCC)nc1OS(=O)(=O)N(C)C | 0.0695 mM (≈ 22 µg/mL)
FC(F)(F)c1nc2c(Cl)c(Cl)ccc2[nH]1 | 0.271 mM (≈ 69 µg/mL)
CCOC(=O)CN(C(=O)CCl)c1c(CC)cccc1CC | 0.337 mM (≈ 105 µg/mL)
CC(O)COCc1c(Cl)ccc(Cl)c1Cl (centres undefined) | 0.271 mM (≈ 73 µg/mL)
CCCCS/C(=N\c1cccnc1)SCc1ccc(C(C)(C)C)cc1 | 0.00268 mM (≈ 1 µg/mL)
Cc1ccc(/N=C/N(C)/C=N/c2ccc(C)cc2C)c(C)c1 | 0.00341 mM (≈ 1 µg/mL)
CNC(=O)Oc1c(C(C)(C)C)cc(C)cc1C(C)(C)C | 0.0252 mM (≈ 7 µg/mL)
Cc1nc(C)c(Cl)c(O)c1Cl | 0.0521 mM (≈ 10 µg/mL)
COC(=O)C(C)Oc1ccc(Oc2ncc(C(F)(F)F)cc2Cl)cc1 (centres undefined) | 0.0248 mM (≈ 9.3 µg/mL)
CCOP(=S)(OCC)SCSP(=S)(OCC)OCC | 0.0052 mM (≈ 2 µg/mL)
CCSC(=O)N(CC)CC | 20.3 mM (≈ 3280 µg/mL)
CC(C)=CCl | 11 mM (≈ 1000 µg/mL)
COP(=S)(OC)Oc1ccc([N+](=O)[O-])c(C)c1 | 0.137 mM (≈ 38 µg/mL)
CCN(CC)C(=O)CCl | 571 mM (≈ 85500 µg/mL)
O=C(O)COc1cc(Cl)cc(Cl)c1 | 4.35 mM (≈ 961 µg/mL)

Same assay, conditions: 26 °C

Compound | solubility
CCNc1nc(OC)nc(N(CC)CC)n1 | 1 mM (≈ 226 µg/mL)

Same assay, conditions: 30 °C

Compound | solubility
CN1C(=O)[C@]23CC4=CC=C[C@H](O)[C@H]4N2C(=O)[C@@]1(CO)SS3 | 0.214 mM (≈ 70 µg/mL)
CCC(C)N(C(=O)SCc1ccccc1)C(C)CC (centres undefined) | 0.00895 mM (≈ 2.5 µg/mL)

Same assay, conditions: pH 3.0; 26 °C

Compound | solubility
CCN(CC)c1nc(NC(C)C)nc(OC)n1 | 0.0129 mM (≈ 3.09 µg/mL)

Same assay, conditions: pH 7.0; 25 °C

Compound | solubility
Cn1cc(-c2ccccc2)c(=O)c(-c2cccc(C(F)(F)F)c2)c1 | 0.0364 mM (≈ 12 µg/mL)
